Data reported in PMC11574108, “4-Furanylvinylquinoline derivative as a new scaffold for the design of oxidative stress initiator and glucose transporter inhibitor drugs” (Scientific Reports, 2024).

Tests used:
HCT 116 p53+/+ = experiment: Monolayer antiproliferative MTS assay; assay type: cell-based, human; conditions: 2D monolayer
Text: (§1) The human colon carcinoma cell line HCT 116 with wild-type p53 (p53^+/+) and the human glioblastoma cell line U-251 were obtained from ATCC, while the HCT 116 with a p53 deletion (p53^−/−) was kindly provided by Prof. M. Rusin from the Maria Sklodowska-Curie Memorial Cancer Center and Institute of Oncology in Gliwice, Poland. The human chronic myelogenous leukaemia cell line K562 and the normal human cell dermal fibroblast cell line NHDF were purchased from Sigma-Aldrich and PromoCell, respectively. Both the HCT 116 and U-251 cell lines were cultured in Dulbecco’s modified Eagle’s medium (DMEM) supplemented with 10% inactivated foetal bovine serum (FBS). The DMEM for the NHDF contained 15% non-inactivated FBS. K562 cells were cultured in RPMI medium completed by 10% inactivated FBS. Additionally, the media were supplemented with antibiotics (streptomycin and penicillin – 1% v/v; Sigma-Aldrich). The cell culture was conducted in 75 cm^2 flasks (Nunc) under standard conditions (37 °C, 5% CO2 humidified atmosphere). Furthermore, the cell lines were frequently tested for mycoplasma using the qRT-PCR technique with specific Mycoplasma primers to confirm the lack of contamination.
(§2) The cells were seeded in 96-well plates (Nunc) with 5,000 or 4,000 cells per well for the cancer cells and NHDF, respectively, and incubated under standard conditions at 37 °C overnight. The culture media were then changed for freshly prepared solutions of the tested compounds in various concentrations. After 72-h incubation the antiproliferative assay was carried out as follows: the solutions of the compounds were changed in each well to 100 µL DMEM without phenol red and 20 µL of CellTiter 96 AQueous One Solution-MTS (Promega). The plates were incubated for 1 h at 37 °C, and the absorbance was then measured at 490 nm using a multi-plate reader (Synergy 4, BioTek). The experiment for each sample was repeated at least three times.
(§3) Additionally, the compounds were also tested for their cytotoxicity against normal cells – human dermal fibroblasts (NHDF).

HCT 116 p53-/- = experiment: Monolayer antiproliferative MTS assay; assay type: cell-based, human; conditions: 2D monolayer
Text: as §1, §2, §3

NHDF = experiment: Monolayer MTS cytotoxicity against normal cells; assay type: cell-based; conditions: NHDF, normal human dermal fibroblasts, 72-h incubation
Text: as §1, §2, §3

U-251 = experiment: Monolayer antiproliferative MTS assay; assay type: cell-based, human
Text: as §1
as §2, with “times. The results are presented as the half-maximal inhibitory concentration (IC50) values, which were estimated in comparison to untreated cells (control) and calculated using GraphPad Prism v.8.0 (USA).” for “times.”
(§4) However, the antiproliferative activity of derivative 13 with furan a ring was surprising. […] For this purpose, we selected two pancreatic cancer cell lines: AsPC-1, which is characterised by a deletion of the p53 protein[20] and PANC-1, which carries an R273H mutation. This mutation also occurred in the glioblastoma U-251 cell line[22],[23]. An additional non-adherent line that carries the TP53 mutation that results in the absence of p53 is the K562 leukemic cell line[24]. […] Moreover, 13 was selective toward […], as indicated by its SI values (3.35–9.41). Among all of the tested cell lines, the highest activity of the compound was found against the HCT 116 cells with the wild-type p53 protein (0.069 µM). […] The p53 protein also interacts with the metabolic pathways that are associated with glucose transport[25] as well as small molecules. In light of the above-mentioned facts, we also determined the cytotoxicity of the GLUT inhibitor BAY-876, which is based on a quinoline scaffold. […] Furthermore, BAY-876 was also toxic to normal cells.

AsPC-1 = experiment: Monolayer antiproliferative MTS assay; assay type: cell-based, human; conditions: 2D monolayer
Protocol: as §2, with “times. The results are presented as the half-maximal inhibitory concentration (IC50) values, which were estimated in comparison to untreated cells (control) and calculated using GraphPad Prism v.8.0 (USA).” for “times.”
as §4

PANC-1 = experiment: Monolayer antiproliferative MTS assay; assay type: cell-based, human; conditions: 2D monolayer
Protocol: as §2, with “times. The results are presented as the half-maximal inhibitory concentration (IC50) values, which were estimated in comparison to untreated cells (control) and calculated using GraphPad Prism v.8.0 (USA).” for “times.”
as §4

GLUT-1 = experiment: qRT-PCR, GLUT-1 mRNA expression; assay type: cell-based, human; conditions: HCT 116 p53-/-, 24 and 48 h
Protocol: The cells were seeded in 35 mm Petri dishes at a density of 500,000 cells and incubated at 37 °C for 24 h. The total RNA was isolated after incubation with solutions of 13 (0.5 µM and 1.0 µM) for 24 h and 48 h, respectively. The isolation from the samples was carried out according to a TRIzol™ Reagent protocol (Thermo Fisher Scientific). Synthesis of cDNA was performed with 2 µg of total RNA using a GoScript™ Reverse Transcriptase kit (Promega) with Oligo(dT)23 Primers. Real-Time PCR was carried out using a CFX96 Touch™ Real-Time PCR Detection System (Bio-Rad) in 10 µL reaction volume. Each sample contained SsoAdvanced™ Universal SYBR Green Supermix (Bio Rad), a specific primer pair mix (0.5 µM each), and 1 µL of cDNA. […] The obtained data were analysed based on a comparison of the expression of the target genes and normalized to a reference gene (GAPDH) using the Livak-Schmittgen (2^−ΔΔCT) method. […]
To verify the effect of derivative 13 on glucose transporters at the mRNA level, the expression of the genes encoding the best-characterised glucose transporters in cells was quantified in real-time. In addition to GLUT-1, the effect of the tested derivative on changes in the expression of GLUT-3 and GLUT-4 was also evaluated (Fig. 8). […]

[1] = Homo sapiens, HCT-116, 72 h, MTS, 72-h incubation

IC50 (HCT 116 p53+/+; [1]): 1710 ± 270 nM | IC50 (HCT 116 p53-/-; [1]): 10800 ± 810 nM | IC50 (U-251; Homo sapiens, U-251, 72 h, 2D monolayer, MTS, 72-h incubation): > 25000 nM | IC50 (AsPC-1; Homo sapiens, ASPC1, 72 h, MTS, 72-h incubation): 160 ± 10 nM | IC50 (PANC-1; Homo sapiens, PANC-1, 72 h, MTS, 72-h incubation): 35 ± 4 nM
SMILES: Cc1c(NC(=O)c2cc(C(N)=O)nc3cc(F)ccc23)c(C(F)(F)F)nn1Cc1ccc(C#N)cc1 [BAY-876]
SI (selectivity index) HCT 116 p53+/+ (HCT 116 p53+/+; relative to NHDF): 2.53 | SI (selectivity index) HCT 116 p53-/- (HCT 116 p53-/-; relative to NHDF): 0.40 | IC50 (NHDF): 4330 ± 480 nM | SI (selectivity index) U-251 (U-251; 2D monolayer, relative to NHDF): < 0.17 | activity in U-251 (U-251; at 25 µM): not active | SI (selectivity index) AsPC-1 (AsPC-1; relative to NHDF): 27.06 | SI (selectivity index) PANC-1 (PANC-1; relative to NHDF): 123.71 | GLUT-1 mRNA level vs control (GLUT-1): increased its expression
